Reference: ChEMBL document CHEMBL3046004, “Esterase-mediated resistance to pyrethroids in field populations of Helicoverpa armigera (Lepidoptera: Noctuidae) from Central Africa” (2009)

Key:
Format in all cases: functional
Helicoverpa armigera [1] = assay: Synergism factor, ratio of LD50 for fourth-instar larval stage of pyrethroid-resistance Helicoverpa armigera laboratory strain GS-RR08 to LD50 for fourth-instar larval stage of pyrethroid-resistance Helicoverpa armigera laboratory strain GS-RR08 in presence of 3.2 microg/larva propenofos
Helicoverpa armigera [2] = assay: Synergism factor, ratio of LD50 for Helicoverpa armigera field strain Guider to LD50 for fourth-instar larval stage of Helicoverpa armigera field strain Guider in presence of 10 microg/larva cytochrome P450 monooxygenase inhibitor, PBO
Helicoverpa armigera [3] = assay: Synergism factor, ratio of LD50 for fourth-instar larval stage of Helicoverpa armigera Foumbot to LD50 for fourth-instar larval stage of Helicoverpa armigera Foumbot in presence of 10 microg/larva cytochrome P450 monooxygenase inhibitor, PBO
Helicoverpa armigera [4] = assay: Synergism factor, ratio of LD50 for fourth-instar larval stage of pyrethroid-resistance Helicoverpa armigera field strain Pitoa isolated from tomato plant to LD50 for fourth-instar larval stage of Helicoverpa armigera field strain Pitoa isolated from tomato plant in presence of 10 microg/larva cytochrome P450 monooxygenase inhibitor, PBO
Helicoverpa armigera [5] = assay: Synergism factor, ratio of LD50 for fourth-instar larval stage of Helicoverpa armigera field strain Pitoa isolated from maize plant to LD50 for fourth-instar larval stage of Helicoverpa armigera field strain Pitoa isolated from maize plant in presence of 10 microg/larva cytochrome P450 monooxygenase inhibitor, PBO
Helicoverpa armigera [6] = assay: Synergism factor, ratio of LD50 for fourth-instar larval stage of Helicoverpa armigera field strain Home to LD50 for fourth-instar larval stage of Helicoverpa armigera field strain Home in presence of 10 microg/larva cytochrome P450 monooxygenase inhibitor, PBO
Helicoverpa armigera [7] = assay: Synergism factor, ratio of LD50 for fourth-instar larval stage of pyrethroid-resistance Helicoverpa armigera laboratory strain GS-RR06 to LD50 for fourth-instar larval stage of pyrethroid-resistance Helicoverpa armigera laboratory strain GS-RR06 in presence of 10 microg/larva cytochrome P450 monooxygenase inhibitor, PBO
Helicoverpa armigera [8] = assay: Insecticidal activity against fourth-instar larval stage of Helicoverpa armigera field strain Gaschiga isolated from hyptis plant assessed as mortality applied topically onto thorax 30 min after 10 microg/larva cytochrome P450 monooxygenase inhibitor, PBO application measured after 48 hr
Helicoverpa armigera [9] = assay: Insecticidal activity against fourth-instar larval stage of Helicoverpa armigera field strain Ngong isolated from cotton plant assessed as mortality applied topically onto thorax 30 min after 10 microg/larva cytochrome P450 monooxygenase inhibitor, PBO application measured after 48 hr
Helicoverpa armigera [10] = assay: Insecticidal activity against fourth-instar larval stage of Helicoverpa armigera field strain Guider isolated from cotton plant assessed as mortality applied topically onto thorax 30 min after 10 microg/larva cytochrome P450 monooxygenase inhibitor, PBO application measured after 48 hr
Helicoverpa armigera [11] = assay: Insecticidal activity against fourth-instar larval stage of Helicoverpa armigera field strain Pitoa isolated from tomato plant assessed as mortality applied topically onto thorax 30 min after 10 microg/larva cytochrome P450 monooxygenase inhibitor, PBO application measured after 48 hr
Helicoverpa armigera [12] = assay: Insecticidal activity against fourth-instar larval stage of Helicoverpa armigera field strain Pitoa isolated from maize plant assessed as mortality applied topically onto thorax 30 min after 10 microg/larva cytochrome P450 monooxygenase inhibitor, PBO application measured after 48 hr
Helicoverpa armigera [13] = assay: Insecticidal activity against fourth-instar larval stage of pyrethroid-resistance Helicoverpa armigera laboratory strain GS-RR06 assessed as mortality applied topically onto thorax 30 min after 10 microg/larva cytochrome P450 monooxygenase inhibitor, PBO application measured after 48 hr
Helicoverpa armigera [14] = assay: Resistance factor, ratio of LD50 for fourth-instar larval stage of Helicoverpa armigera field strain Gaschiga isolated from hyptis plant to LD50 for fourth-instar larval stage of pyrethroid-susceptible Helicoverpa armigera laboratory strain BK-77
Helicoverpa armigera [15] = assay: Resistance factor, ratio of LD50 for fourth-instar larval stage of Helicoverpa armigera field strain Ngong to LD50 for fourth-instar larval stage of pyrethroid-susceptible Helicoverpa armigera laboratory strain BK-77
Helicoverpa armigera [16] = assay: Resistance factor, ratio of LD50 for fourth-instar larval stage of Helicoverpa armigera field strain Djalingo to LD50 for fourth-instar larval stage of pyrethroid-susceptible Helicoverpa armigera laboratory strain BK-77
Helicoverpa armigera [17] = assay: Resistance factor, ratio of LD50 for fourth-instar larval stage of Helicoverpa armigera field strain Guider to LD50 for fourth-instar larval stage of pyrethroid-susceptible Helicoverpa armigera laboratory strain BK-77
Helicoverpa armigera [18] = assay: Resistance factor, ratio of LD50 for fourth-instar larval stage of Helicoverpa armigera field strain Mokong to LD50 for fourth-instar larval stage of pyrethroid-susceptible Helicoverpa armigera laboratory strain BK-77
Helicoverpa armigera [19] = assay: Resistance factor, ratio of LD50 for fourth-instar larval stage of Helicoverpa armigera Foumbot to LD50 for fourth-instar larval stage of pyrethroid-susceptible Helicoverpa armigera laboratory strain BK-77
Helicoverpa armigera [20] = assay: Insecticidal activity against fourth-instar larval stage of Helicoverpa armigera field strain Guider isolated from cotton plant assessed as mortality applied topically onto thorax measured after 48 hr
Helicoverpa armigera [21] = assay: Insecticidal activity against fourth-instar larval stage of Helicoverpa armigera field strain Mokong isolated from cotton plant assessed as mortality applied topically onto thorax measured after 48 hr
Helicoverpa armigera [22] = assay: Insecticidal activity against fourth-instar larval stage of Helicoverpa armigera Foumbot isolated from tomato plant assessed as mortality applied topically onto thorax measured after 48 hr
Helicoverpa armigera [23] = assay: Insecticidal activity against fourth-instar larval stage of Helicoverpa armigera field strain Pitoa isolated from maize plant assessed as mortality applied topically onto thorax measured after 48 hr
Helicoverpa armigera [24] = assay: Insecticidal activity against fourth-instar larval stage of Helicoverpa armigera field strain Sorga isolated from cotton plant assessed as mortality applied topically onto thorax measured after 48 hr
Helicoverpa armigera [25] = assay: Insecticidal activity against fourth-instar larval stage of pyrethroid-resistance Helicoverpa armigera laboratory strain GS-RR08 assessed as mortality applied topically onto thorax measured after 48 hr
Helicoverpa armigera [26] = assay: Insecticidal activity against fourth-instar larval stage of pyrethroid-resistance Helicoverpa armigera laboratory strain GS-RR06 assessed as mortality applied topically onto thorax measured after 48 hr
Helicoverpa armigera [27] = assay: Resistance factor, ratio of LD50 for fourth-instar larval stage of Helicoverpa armigera field strain Tchollire to LD50 for fourth-instar larval stage of pyrethroid-susceptible Helicoverpa armigera laboratory strain BK-77
Helicoverpa armigera [28] = assay: Resistance factor, ratio of LD50 for fourth-instar larval stage of Helicoverpa armigera field strain Pitoa isolated from maize plant to LD50 for fourth-instar larval stage of pyrethroid-susceptible Helicoverpa armigera laboratory strain BK-77
Helicoverpa armigera [29] = assay: Resistance factor, ratio of LD50 for fourth-instar larval stage of Helicoverpa armigera field strain Sorga to LD50 for fourth-instar larval stage of pyrethroid-susceptible Helicoverpa armigera laboratory strain BK-77
Helicoverpa armigera [30] = assay: Resistance factor, ratio of LD50 for fourth-instar larval stage of pyrethroid-resistance Helicoverpa armigera laboratory strain GS-RR08 to LD50 for fourth-instar larval stage of pyrethroid-susceptible Helicoverpa armigera laboratory strain BK-77
Helicoverpa armigera [31] = assay: Resistance factor, ratio of LD50 for fourth-instar larval stage of pyrethroid-resistance Helicoverpa armigera laboratory strain GS-RR06 to LD50 for fourth-instar larval stage of pyrethroid-susceptible Helicoverpa armigera laboratory strain BK-77
Helicoverpa armigera [32] = assay: Insecticidal activity against fourth-instar larval stage of Helicoverpa armigera field strain Gaschiga isolated from hyptis plant assessed as mortality applied topically onto thorax measured after 48 hr
Helicoverpa armigera [33] = assay: Insecticidal activity against fourth-instar larval stage of Helicoverpa armigera field strain Ngong isolated from cotton plant assessed as mortality applied topically onto thorax measured after 48 hr

CC1(C)C(C=C(Cl)Cl)C1C(=O)OC(C#N)c1cccc(Oc2ccccc2)c1 (stereo not drawn) [ALPHA-CYPERMETHRIN]
Ratio (Helicoverpa armigera [1]): 3.7
Ratio (Helicoverpa armigera [2]): 3.6
Ratio (Helicoverpa armigera [3]): 1.3
Ratio (Helicoverpa armigera [4]): 5
Ratio (Helicoverpa armigera [5]): 8.3
Ratio (Helicoverpa armigera [6]): 2.1
Ratio (Helicoverpa armigera [7]): 1.5
LD50 (Helicoverpa armigera [8]): 1.8 microgAi/g
LD50 (Helicoverpa armigera [9]): 3 microgAi/g
LD50 (Helicoverpa armigera [10]): 8.8 microgAi/g
LD50 (Helicoverpa armigera [11]): 53.2 microgAi/g
LD50 (Helicoverpa armigera [12]): 28.9 microgAi/g
LD50 (Helicoverpa armigera [13]): 480.3 microgAi/g
Ratio (Helicoverpa armigera [14]): 96
Ratio (Helicoverpa armigera [15]): 240
Ratio (Helicoverpa armigera [16]): 194
Ratio (Helicoverpa armigera [17]): 67
Ratio (Helicoverpa armigera [18]): 152
Ratio (Helicoverpa armigera [19]): 174
LD50 (Helicoverpa armigera [20]): 31.6 microgAi/g
LD50 (Helicoverpa armigera [21]): 71.5 microgAi/g
LD50 (Helicoverpa armigera [22]): 81.6 microgAi/g
LD50 (Helicoverpa armigera [23]): 239.9 microgAi/g
LD50 (Helicoverpa armigera [24]): 57.7 microgAi/g
LD50 (Helicoverpa armigera [25]): 832.5 microgAi/g
LD50 (Helicoverpa armigera [26]): 718.4 microgAi/g
Ratio (Helicoverpa armigera [27]): 102
Ratio (Helicoverpa armigera [28]): 510
Ratio (Helicoverpa armigera [29]): 123
Ratio (Helicoverpa armigera [30]): 1771
Ratio (Helicoverpa armigera [31]): 1529
LD50 (Helicoverpa armigera [32]): 45 microgAi/g
LD50 (Helicoverpa armigera [33]): 112.6 microgAi/g
